Laboratory results published in patent EP0035270A2, “Heterocyclic compounds, compositions thereof, their preparation and use” (THE WELLCOME FOUNDATION LIMITED, priority 1980, dated 1981).

Assays:
LD50's in mice = details: mouse, in vivo, ip; i.p. administration to mice
Procedure: The LD50's of compounds of formula were determined by conventional techniques by i.p. administration to mice.

[1] = Effect of pyrazolidinones on bodyweight of rats (single oral dose); format: in vivo; details: 0.22 m moles/kilogram bodyweight, two days after administration
Procedure: The compound of formula (I) prepared by the methods described in Examples 1 and 2 were administered orally to rats at a dose corresponding to 0.22 m moles/kilogram bodyweight. Two days after administration the weight of the treated rats was compared with control and the difference expressed as a percentage of the weight of the control animals.

[2] = Effect of varying daily oral doses of 1-n-decyl pyrazolidin-3-one on rat bodyweight; format: in vivo, Male Sprague-Dawley rats; details: for Percent Change from Initial Bodyweight (Mean ± S.E.M.) Day 5: Day 5, rats approx. 575 grams; for Percent Change from Initial Bodyweight (Mean ± S.E.M.) Day 10: Day 10, rats approx. 575 grams
Procedure: Male Sprague-Dawley rats were acclimatized to laboratory conditions for approximately four weeks prior to the experiment being carried out. The rats were maintained on a 12 hr/12 hr light dark cycle and had continuous access to food and water. Rats weighing approx. 575 grams were housed 4 to a cage and each rat treated daily with an oral injection of either saline vechicle or one of three doses of 1-n-decylpyrazolidinone dissolved in saline vehicle. The saline vehicle was prepared fresh each day.

[3] = Effect of 1-n-decyl pyrazolidin-3-one on rat bodyweight and food consumption; format: in vivo, Male Sprague-Dawley rats
Procedure: Male Sprague-Dawley rats were acclimatized as described in Example 6. The Rats (approx. 300 grams) were housed individually to present measurement of food consumption as well as bodyweight. Animals were treated once daily by oral […] guage either with saline or with 1-n-decyl pyrazolidin-3-one (25 mg/kg) in saline vehicle. Measurement of bodyweight and food consumption was […] during the recovery days, when treatment with drug has stopped.

For CCCCCCCCN1CCC(=O)N1.Cl [n-octyl, 1-(n-octyl)-3-pyrazolidone hydrochloride], the LD50 (LD50's in mice) was 250 mg/kg.
Work on CCCCCCCCCN1CCC(=O)N1.Cl [n-nonyl, 1-(n-nonyl)-3-pyrazolidone hydrochloride] yielded an LD50 (LD50's in mice) of 210 mg/kg.
In the case of CCCCCCCCCCN1CCC(=O)N1.Cl [n-decyl, 1-(n-decyl)-3-pyrazolidone hydrochloride], the “% weight deviation from control” value [1] is reported as -10.9%, the “Percent Change from Initial Bodyweight (Mean ± S.E.M.) Day 5” value (“Percent Change … (Mean ± S.E.M.) Day 5” for short) ([2]; 10 mg/kg p.o. daily) is reported as -2.7 ± 0.3% and the “Percent Change from Initial Bodyweight (Mean ± S.E.M.) Day 10” value (shortened to “Percent Change … (Mean ± S.E.M.) Day 10”) ([2]; 10 mg/kg p.o. daily) is reported as -1.1 ± 0.4%. For the same compound, the “Percent Change … (Mean ± S.E.M.) Day 5” value ([2]; 15 mg/kg p.o. daily) was -3.3 ± 1.0%, the “Percent Change … (Mean ± S.E.M.) Day 10” value ([2]; 15 mg/kg p.o. daily) was -9.6 ± 1.7% and the “Percent Change … (Mean ± S.E.M.) Day 5” value ([2]; 20 mg/kg p.o. daily) was -3.8 ± 0.6%. For the same compound, the “Percent Change … (Mean ± S.E.M.) Day 10” value ([2]; 20 mg/kg p.o. daily) was -11.1 ± 1.8%, the “Percent change in amount of food consumed (Mean ± S.E.M.)” value (“Percent change in amount” for short) ([3]; 25 mg/kg p.o. once daily, Treatment Day 2) was -1 ±6% and the “Percent change in amount” value ([3]; after 25 mg/kg p.o. once daily, Recovery Day 2 (treatment stopped)) was -8 ±7%. For the same compound, the “Percent change in amount” value ([3]; after 25 mg/kg p.o. once daily, Recovery Day 3 (treatment stopped)) was “+13 ±8%” and the LD50 (LD50's in mice) was 500 mg/kg.
CCCCCCCCCCCCCCN1CCC(=O)N1.Cl [CH3(CH2)13-, 1-(n-tetradecyl)-3-pyrazolidone hydrochloride] gave an LD50 (LD50's in mice) of 350 mg/kg.
In the case of CCCCCCCCCCCN1CCC(=O)N1.Cl [n-undecyl, 1-(n-undecyl)-3-pyrazolidone hydrochloride], the LD50 (LD50's in mice) is reported as 350 mg/kg.
